Measurements reported in paper PMC11904221 (EMBO Molecular Medicine, 2025).
Read-outs that look alike come from different tables or passages of the source. Where a SMILES comes first, the peptide text is derived from it.

Assays:
[1] = mouse, in vivo, ip
Protocol: A single intraperitoneal injection on day 1 was followed by a 14-day observation period. Parameters monitored included mortality, morbidity, clinical signs, and body weight. At the study’s end, gross pathology and organ necropsy were conducted. […] Evaluations encompassed clinical observations, body weight, food consumption, hematology, blood chemistry, gross pathology, selected organ necropsy, and weight, and histopathology examinations. Comprehensive study details are in Appendix pharmacological studies-1 and -2. […]
was assessed in the present study.
Methods: 4 groups (5 males and 5 females per group) were assigned for this study. In each gender, reference item control groups (1F+1M) received the reference item (Saline Solution, NaCl 0,9%) and 3 treated groups […]
4F+4M) mg/kg. All animals were IP dosed and followed daily for 2 weeks (5 days a week). During the study, mortality and general clinical observation, body weight, food consumption, hematology, blood chemistry, gross pathology, selected organ necropsy and weight and histopathology examination of control and high dose groups […]
dosing of five female and five male mice (Table 1 and Table 2). The choice of the number and the gender of the animals were based on OECD guidelines.
Study variables and end points […]
Observations for signs of morbidity and mortality were performed daily. […] The time of death was recorded as precisely as possible. […]

[2] = Pharmacokinetic profile in mice, LC/MS; format: in vivo, mouse; details: mouse, iv, 100 mg/kg
Protocol: Pharmacokinetic profile of APLN-DM in mice
The aim of the current study was to evaluate pharmacokinetic properties of APLN-DM peptide administrated intravenously (IV) or intraperitoneously (IP) in Balb/C mice. […]
for the IP group). Development of quantification method was performed using liquid chromatography coupled to mass spectrometry (LC/MS).
Results: Samples obtained in vivo were analyzed according to quantification-developed method and the peptide was detectable until 15 minutes after administration. Analysis allowed determining that APLN-DM […]
All animals were divided to three groups of 27 animals, one of 12 animals and one of 3 animals (vehicle) and will receive the corresponding test item according to Table 1. Each animal was weighed and administered at the appropriate volume.
Concentration ROA Blood Individual animal numbers
Group No. Treatment Dose Collect
Table 11 - Group allocation
Development of analytic method
Standard range from 0.5 to 100 µM was prepared and analysed for each fragmented ion as previously […]
Standard curves obtained for each ion are represented in Figure 6.
Figure 8: Standard curves obtained by quantification of each fragmented ion The best linearity was obtained by quantifying the fragmented ion 785 (z=5).
Quantification of APLN-DM in samples
Summary of analytical method development:
Quantification method was performed according to previous work. In summary, samples were analysed with a LC-MS triple quadripole system (ESI QqQ). The chromatographic system was a UPLC activity (Waters) coupled to a mass spectrometer TSQ Quantum Ultra (Thermo) equipped with triple quadripole analyser and electrospray ionisation (ESI) system. The selected column was Kinetex F5 […] 50x2.1 mm (Phenomenex). The analysis was made by quantifying fragmented ion z=5 (m/z=785) in samples compared […]
quantitation was previously determined to be 0.5 µM. Samples were analysed after protein precipitation as […]
In vivo phase samples analysis
As the stability of peptide is low, even in frozen plasma, it was decided to re-run the in vivo phase for the highest dose and to use freshly prepared samples.
26 samples were used for analysis.
Only samples taken 5 and 10 minutes after peptide administration presented detectable concentrations (see
Table 9). While 15 min results were on the level of accuracy (linearity threshold values). At a later time […]
estimated based on the 5 and 10 min measurements.
Sample ID Area Calculated amount

in vitro [3] = assay: in vitro
in vitro [4] = assay: in vitro; remark: listed apart in the source
[5] = for microsomal CLint: liver microsomes

CSCC[C@H](NC(=O)[C@@H]1CCCN1C(=O)CNC(=O)[C@H](CCCCN)NC(=O)[C@H](Cc1c[nH]cn1)NC(=O)[C@H](CO)NC(=O)[C@H](CC(C)C)NC(=O)[C@H](CCCNC(=N)N)NC(=O)[C@@H]1CCCN1C(=O)[C@H](CCCNC(=N)N)NC(=O)[C@H](CCC(N)=O)NC(=O)[C@H](CO)NC(=O)[C@H](CO)NC(=O)[C@H](Cc1ccccc1)NC(=O)[C@H](CCCCN)NC(=O)[C@H](CO)NC(=O)[C@H](CO)NC(=O)CNC(=O)CNC(=O)[C@H](CCC(N)=O)NC(=O)[C@H](Cc1c[nH]c2ccccc12)NC(=O)[C@@H]1CCCN1C(=O)CNC(=O)[C@@H]1CCCN1C(=O)CNC(=O)[C@H](CC(N)=O)NC(=O)[C@H](CCCNC(=N)N)NC(=O)[C@H](CO)NC(=O)CNC(=O)[C@H](CCCNC(=N)N)NC(=O)[C@@H]1CCCN1C(=O)[C@H](CCC(N)=O)NC(=O)[C@@H](NC(=O)[C@@H](N)CC(C)C)C(C)C)C(=O)N1CCC[C@H]1C(=O)N[C@@H](Cc1ccccc1)C(=O)O [APLN-DM] (H-LVQPRGSRNGPGPWQGGSSKFSSQRPRLSHKGPMPF-OH)
MTD repeated administrations / highest tested dose found safe [1]: 300 mg/kg/day
level at time molar at 5 min ([2]; Balb/C, plasma, group 2F, 100 mg/kg IV, 5 min, samples 1-3, no unit printed (standards in µM), read-out: Calculated amount in plasma sample): 0.793 µM
level at time molar at 10 min ([2]; Balb/C, plasma, group 2F, 100 mg/kg IV, 10 min, samples 1-3, read-out: Calculated amount in plasma sample): 658 nM
half-life ([2]; female, Balb/C mice plasma, LC/MS, estimated from the 5 and 10 min samples, read-out: half-life in vivo in mice): ~0.333 h
% Protein bound, 1st (in vitro [3]): 26.1%
% Protein bound, 2nd (in vitro [3]): 26.9%
% Recovery, Mean (in vitro [3]): 93%
fraction unbound at 4 h, 1e-05 M (in vitro [3]; CD-1, mouse, plasma): 0.74
Half-life in human plasma (in vitro [4]): > 18 h
Half-life, 1st (in vitro [4]; human): 21.173 h
Half-life, 2nd (in vitro [4]; human): 16.21 h
half-life at 1 µM (in vitro [4]; human, plasma): 18.7 h
remaining at 0.5 h (in vitro [4]; human, plasma): 99%
remaining at 1 h (in vitro [4]; human, plasma): 98%
remaining at 2 h (in vitro [4]; human, plasma): 93%
clearance category [5]: high
Half-life, 1st ([5]; human): 1.24 h
Half-life, 2nd ([5]; human): 1.14 h
Half-life, Mean ([5]; human): > 1 h
microsomal CLint ([5]; human): < 116 µL/min/mg
microsomal CLint [5]: < 116 µL/min/mg
